Experiments:
NIH 3T3 cells [1] = experiment: DNA synthesis by flow cytometric analysis in serum-starved NIH 3T3 cells; type: cell-based; conditions: 15 ng ml^−1, 20 h
Method: To further confirm the mitogenic activity of the SA peptide, its effect on DNA synthesis was examined. Serum-starved NIH 3T3 cells were treated with SA peptide, fixed, and the DNA concentration was determined by standard flow cytometric analysis. Specifically, confluent NIH 3T3 cells (1.3×10^6 cells) were serum-starved in DMEM containing 0.5% FBS for 2 days. The cells were untreated (control) or treated with SA peptide or aFGF for 20 h, harvested, spun down, and washed with serum-free PBS, three times. The cells were fixed with methanol precooled to −20° C. for DNA analysis carried out by the Flow Cytometry Research Service of Vanderbilt University. The data were the mean ±S.E.M. of six measurements and were analyzed for statistical significance by analysis of variance.

NIH 3T3 cells [2] = experiment: [3H]thymidine incorporation (mitogenic response) of NIH 3T3 cells; type: cell-based; conditions: serum-starved NIH 3T3 cells, 16 h + 4 h
Method: A 26-residue hybrid peptide (referred to as SA, listed herein as SEQ ID NO:3) was designed and synthesized. […] Thus, the SA peptide differs from the SM peptide only in its 7-residue carboxyl terminal “cargo” region. A functional assay was performed in which SA peptide was able to induce a mitogenic response of NIH 3T3 cells measured by [^3H]thymidine incorporation in a manner similar to aFGF bearing, the same NLS. ^18
In this functional assay, confluent 3T3 cells grown initially in DMEM containing 10% FBS were transferred to a low serum medium (DMEM containing 0.5% FBS) for 2 days. The test peptides, either SA peptide, SAα pep-tide, ANL peptide, or SM peptide, or aFGF, were added to a fresh low serum medium at the indicated concentrations at 37° C. After 16 hours, [^3H]thymidine was added and 4 hours later, the cells were washed with PBS, treated with trichloroacetic acid, solubilized with 0.15 M NaOH, and the radioactivity was determined in a liquid scintillation counter.
Bars represent the mean±S.E.M. of at least three independent experiments done in triplicate and calculated as multiplicity of counts in the tested sample over the control sample. SA peptide within the concentration range used (0 to 46 μM) was not cytotoxic as determined by staining with fluorescein diacetate/ethidium bromide. ^20

NIH 3T3 cells [3] = conditions: aFGF binding to FGF receptors on NIH 3T3 cells; cited from earlier work

Substance: aFGF: acidic fibroblast growth factor
- Diploid % S Phase (NIH 3T3 cells [1]): 27.8 ± 2.3 (P < 0.05) %
- Stimulation of [3H]thymidine incorporation over control (NIH 3T3 cells [2]): ~8 fold
- Tyrosine phosphorylation of intracellular proteins (NIH 3T3 cells [3]): induces the tyrosine phosphorylation

— patent publication US7553929B2, “Cell permeable peptides for inhibition of inflammatory reactions and methods of use” (Vanderbilt University, priority 1994, dated 2009)
